Assay results: PubChem BioAssay AID1963963 (Molecular Pharmacology Branch, DTP, NCI, 2024)
Several values for one entry are separate records, joined by “and”; a condition that tells them apart may be missing. Equal values may be shown once.

System: 958667-338-R-J2-PDC tumor spheroids viability
Test: Anticancer human tumor 958667-338-R-J2-PDC patient-derived colon adenocarcinoma cell line growth inhibition [PI3K]
Details: spheroids with HUVEC and MSC; for viability, T/C: stronger effect = lower value
Description: Combinatorial screen of targeted agents with the PI3K inhibitors inavolisib, alpelisib, duvelisib, and copanlisib in multi-cell type tumor spheroids
A high-throughput screen of multi-cell type tumor spheroids was designed to identify active combinations of targeted small molecules and PI3K pathway inhibitors. Complex spheroids include a stromal component modeled by human endothelial cells (HUVEC) and fibroblasts modeled by human mesenchymal stem cells (MSCs). The concentration ranges selected for each drug and investigational agent were based upon clinically achievable concentrations if the clinical Cmax of the agent was known.
Compounds. The drugs and investigational agents: inavolisib (NSC800729), alpelisib (NSC765974), duvelisib (NSC772469), copanlisib (NSC816437), ipatasertib (NSC767898), afuresertib (NSC778305), talazoparib (NSC767125), sapanisertib (NSC764658), selumetinib (NSC741078), tovorafenib (DAY101, NSC766906), vemurafenib (NSC761431), ravoxertinib (NSC781343), sotorasib (NSC818433), MRTX1133 (NSC 836407), abemaciclib (NSC 768073), palbociclib (NSC758247), venetoclax (NSC 766270), SY5609 (NSC837396), enzalutamide (NSC755605), and darolutamide (NSC825331), were obtained from the National Cancer Institute (NCI) Developmental Therapeutics Program Chemical Repository. The FDA-approved anticancer drug set is available from the NCI Developmental Therapeutics Program. […] The stock solutions were prepared in dimethyl sulfoxide (DMSO, Sigma-Aldrich, St. Louis, MO, cat. D2650) at 800-fold the tested concentration and stored at -70 degrees C prior to their use. All drugs and investigational agents were tested over a range starting from a high concentration at or near the clinical Cmax and decreasing in half-log increments. If the clinical Cmax for an agent had not been determined, the highest concentration tested was 10 microM.
Cell Culture. All cells were maintained in an incubator at 37 degrees C and 5% CO2 with 95% humidity. The PDC lines were cultured according to standard operating procedures established by the NCI PDMR (https://pdmr.cancer.gov/sops/default.htm). All PDCs were thawed and cultured in Matrigel-coated flasks prepared with a working solution of 1X Ham's F-12 nutrient mix, without supplementation (Invitrogen, Waltham, MA, cat. 11765054), 100 U/mL penicillin-streptomycin (Invitrogen, cat. 15140122), and 2.5% Matrigel (Corning Inc., Corning, NY, cat. 354248) for the first three passages. The 354836-022-R-J1-PDC, 475296-252-R-J1-PDC, and 997726-040-R-J2-PDC lines were cultured in 6A media, which includes advanced DMEM/F-12 (Thermo Fisher Scientific, cat. 12634028), 10 mM HEPES (Thermo Fisher Scientific, cat. 15630080), 1X GlutaMAX supplement (Thermo Fisher Scientific, cat. 35050061), 0.1 mg/mL primocin (InvivoGen, San Diego, CA, cat. ant-pm-2), 10% defined fetal bovine serum, heat inactivated (HyClone Laboratories Inc., Logan, UT, cat. SH30070.03HI), 50% L-WRN conditioned media (ATCC, cat. CRL-3276), 1.25 mM N-Acetyl-L-cysteine (Sigma-Aldrich, cat. A9165), 10 mM nicotinamide (Sigma-Aldrich, cat. N0636), 1X B-27 supplement (Thermo Fisher Scientific, cat. 17504044), 1X N-2 supplement (Thermo Fisher Scientific, cat. 17502048), and 10 microM Y-27632 dihydrochloride (Tocris Bioscience, Bristol, United Kingdom, cat. 1254). The 624824-186-R-J2-PDC line was cultured in 6C/Colon 1B media, which includes all 6A media components plus 50 ng/mL human EGF recombinant protein (Thermo Fisher Scientific, cat. PHG0311). […]

[1] = curve of first compound, second compound 0.0316 µM
[2] = curve of first compound, second compound 0.1 µM
[3] = curve of first compound, second compound 0.316 µM
[4] = curve of first compound, second compound 1 µM
[5] = second compound 0.0316 µM, first compound 0.0316 µM
[6] = second compound 0.0316 µM, first compound 0.1 µM
[7] = second compound 0.0316 µM, first compound 0.316 µM
[8] = second compound 0.0316 µM, first compound 1 µM
[9] = second compound 0.0316 µM, first compound 3.16 µM
[10] = second compound 0.0316 µM, first compound 10 µM
[11] = second compound 0.1 µM, first compound 0.0316 µM
[12] = second compound 0.1 µM, first compound 0.1 µM
[13] = second compound 0.1 µM, first compound 0.316 µM
[14] = second compound 0.1 µM, first compound 1 µM
[15] = second compound 0.1 µM, first compound 3.16 µM
[16] = second compound 0.1 µM, first compound 10 µM
[17] = second compound 0.316 µM, first compound 0.0316 µM
[18] = second compound 0.316 µM, first compound 0.1 µM
[19] = second compound 0.316 µM, first compound 0.316 µM
[20] = second compound 0.316 µM, first compound 1 µM
[21] = second compound 0.316 µM, first compound 3.16 µM
[22] = second compound 0.316 µM, first compound 10 µM
[23] = second compound 1 µM, first compound 0.0316 µM
[24] = second compound 1 µM, first compound 0.1 µM
[25] = second compound 1 µM, first compound 0.316 µM
[26] = second compound 1 µM, first compound 1 µM
[27] = second compound 1 µM, first compound 3.16 µM
[28] = second compound 1 µM, first compound 10 µM
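Note: spheroids exposed to compounds for seven days before readout.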

In the case of `CNC(=O)c1ccc(N2C(=S)N(c3ccc(C#N)c(C(F)(F)F)c3)C(=O)C2(C)C)cc1F`, the viability, T/C (compound 0.0316 µM) is reported as 110% [middle of 4 runs], the viability, T/C (compound 0.1 µM) is reported as 97% [middle of 4 runs] and the viability, T/C (compound 1 µM) is reported as 112% and 103% (2×) and 100%. For the same molecule, the viability, T/C (compound 3.16 µM) was 95.8% and 104% and 124% (2×), the viability, T/C (compound 10 µM) was 103% (2×) and 115% and 88.7% and the IC50 (curve of compound) was > 10 µM.

For `CC1(C)CCC(CN2CCN(c3ccc(C(=O)NS(=O)(=O)c4ccc(NCC5CCOCC5)c([N+](=O)[O-])c4)c(Oc4cnc5[nH]ccc5c4)c3)CC2)=C(c2ccc(Cl)cc2)C1` + CC(Nc1ncnc2nc[nH]c12)c1cc2cccc(Cl)c2c(=O)n1-c1ccccc1, the IC50 [1] was > 10 µM, the IC50 [2] was > 10 µM and the IC50 [3] was > 10 µM. For the same molecule, the IC50 [4] was > 10 µM, the IC50 (curve of first compound, second compound 3.16 µM) was > 10 µM and the IC50 (curve of first compound, second compound 10 µM) was > 10 µM. For the same molecule, the viability, T/C [5] was 107%, the viability, T/C [6] was 93.6% and the viability, T/C [7] was 101%. For the same molecule, the viability, T/C [8] was 93%, the viability, T/C [9] was 119% and the viability, T/C [10] was 69.9%. It also gave a viability, T/C [11] of 96.3%, a viability, T/C [12] of 102% and a viability, T/C [13] of 90.6%. The viability, T/C [14] was 94.6%, the viability, T/C [15] was 107% and the viability, T/C [16] was 51.2%. For the same molecule, the viability, T/C [17] was 101%, the viability, T/C [18] was 106% and the viability, T/C [19] was 104%. For the same molecule, the viability, T/C [20] was 116%, the viability, T/C [21] was 105% and the viability, T/C [22] was 80.3%. It also gave a viability, T/C [23] of 90.1%, a viability, T/C [24] of 96.2% and a viability, T/C [25] of 100%. For the same molecule, the viability, T/C [26] was 100%, the viability, T/C [27] was 101% and the viability, T/C [28] was 76.8%. For the same molecule, the viability, T/C (second compound 3.16 µM, first compound 0.0316 µM) was 93.4%, the viability, T/C (second compound 3.16 µM, first compound 0.1 µM) was 108% and the viability, T/C (second compound 3.16 µM, first compound 0.316 µM) was 94.4%. It also gave a viability, T/C (second compound 3.16 µM, first compound 1 µM) of 93.1%, a viability, T/C (second compound 3.16 µM, first compound 3.16 µM) of 99.9% and a viability, T/C (second compound 3.16 µM, first compound 10 µM) of 54.5%. For the same molecule, the viability, T/C (second compound 10 µM, first compound 0.0316 µM) was 93.2%, the viability, T/C (second compound 10 µM, first compound 0.1 µM) was 84.3% and the viability, T/C (second compound 10 µM, first compound 0.316 µM) was 101%. For the same molecule, the viability, T/C (second compound 10 µM, first compound 1 µM) was 88%, the viability, T/C (second compound 10 µM, first compound 3.16 µM) was 97.7% and the viability, T/C (second compound 10 µM, first compound 10 µM) was 68.2%.

For `Cc1nc(NC(=O)N2CCCC2C(N)=O)sc1-c1ccnc(C(C)(C)C(F)(F)F)c1` (stereo not drawn), the viability, T/C (compound 3.16 µM) was 71.5% [middle of 8 runs], the viability, T/C (compound 10 µM) was 66% [middle of 8 runs] and the IC50 (compound alone, run of 06/12/2023) was > 10 µM.

`CC(C)NCC(C(=O)N1CCN(c2ncnc3c2C(C)CC3O)CC1)c1ccc(Cl)cc1` (stereo not drawn) + COc1c(OCCCN2CCOCC2)ccc2c3n(c(=NC(=O)c4cnc(N)nc4)nc12)CCN3 was tested, and the IC50 (curve of first compound, second compound 0.00316 µM) was > 10 µM, the IC50 (curve of first compound, second compound 0.01 µM) was > 10 µM and the IC50 [1] was > 10 µM. The IC50 [2] was 4.02 µM, the IC50 [3] was < 0.0316 µM and the IC50 [4] was < 0.0316 µM. It also gave a viability, T/C (second compound 0.00316 µM, first compound 0.0316 µM) of 94.4%, a viability, T/C (second compound 0.00316 µM, first compound 0.1 µM) of 88% and a viability, T/C (second compound 0.00316 µM, first compound 0.316 µM) of 74%. It also gave a viability, T/C (second compound 0.00316 µM, first compound 1 µM) of 95.7%, a viability, T/C (second compound 0.00316 µM, first compound 3.16 µM) of 90.7% and a viability, T/C (second compound 0.00316 µM, first compound 10 µM) of 60.2%. It also gave a viability, T/C (second compound 0.01 µM, first compound 0.0316 µM) of 97.8%, a viability, T/C (second compound 0.01 µM, first compound 0.1 µM) of 73.9% and a viability, T/C (second compound 0.01 µM, first compound 0.316 µM) of 69%. It also gave a viability, T/C (second compound 0.01 µM, first compound 1 µM) of 100%, a viability, T/C (second compound 0.01 µM, first compound 3.16 µM) of 54.8% and a viability, T/C (second compound 0.01 µM, first compound 10 µM) of 66.2%. It also gave a viability, T/C [5] of 68.7%, a viability, T/C [6] of 69.3% and a viability, T/C [7] of 67.8%. It also gave a viability, T/C [8] of 77.7%, a viability, T/C [9] of 71.3% and a viability, T/C [10] of 50.6%. The viability, T/C [11] was 61.6%, the viability, T/C [12] was 43.2% and the viability, T/C [13] was 67.4%. For the same molecule, the viability, T/C [14] was 60.5%, the viability, T/C [15] was 51.1% and the viability, T/C [16] was 37.4%. It also gave a viability, T/C [17] of 36.9%, a viability, T/C [18] of 35.3% and a viability, T/C [19] of 29.8%. For the same molecule, the viability, T/C [20] was 38.1%, the viability, T/C [21] was 27.2% and the viability, T/C [22] was 23.1%. The viability, T/C [23] was 17.6%, the viability, T/C [24] was 18.7% and the viability, T/C [25] was 15.4%. It also gave a viability, T/C [26] of 19.5%, a viability, T/C [27] of 16.2% and a viability, T/C [28] of 14.8%.
